# Data as given in US20110275703A1, “SUBSTITUTED SPIROKETAL DERIVATIVES AND USE THEREOF AS THERAPEUTIC DRUG FOR DIABETES” (CHUGAI SEIYAKU KABUSHIKI KAISHA, priority 2007, published 2011).
# What was measured:
# human SGLT2 = molecular target: T1, human SGLT2 (Homo sapiens, UniProt P31639); experiment: Inhibitory activity against methyl-α-D-glucopyranoside uptake, CHO cells stably expressing human SGLT2; assay type: cell-based; settings: inhibition of SGLT2, Table 2-1; read-out: IC50 value
# T1 construct: expressed in transfected cells; host or cells: CHO-K1
# T1 sequence (P31639 1-672): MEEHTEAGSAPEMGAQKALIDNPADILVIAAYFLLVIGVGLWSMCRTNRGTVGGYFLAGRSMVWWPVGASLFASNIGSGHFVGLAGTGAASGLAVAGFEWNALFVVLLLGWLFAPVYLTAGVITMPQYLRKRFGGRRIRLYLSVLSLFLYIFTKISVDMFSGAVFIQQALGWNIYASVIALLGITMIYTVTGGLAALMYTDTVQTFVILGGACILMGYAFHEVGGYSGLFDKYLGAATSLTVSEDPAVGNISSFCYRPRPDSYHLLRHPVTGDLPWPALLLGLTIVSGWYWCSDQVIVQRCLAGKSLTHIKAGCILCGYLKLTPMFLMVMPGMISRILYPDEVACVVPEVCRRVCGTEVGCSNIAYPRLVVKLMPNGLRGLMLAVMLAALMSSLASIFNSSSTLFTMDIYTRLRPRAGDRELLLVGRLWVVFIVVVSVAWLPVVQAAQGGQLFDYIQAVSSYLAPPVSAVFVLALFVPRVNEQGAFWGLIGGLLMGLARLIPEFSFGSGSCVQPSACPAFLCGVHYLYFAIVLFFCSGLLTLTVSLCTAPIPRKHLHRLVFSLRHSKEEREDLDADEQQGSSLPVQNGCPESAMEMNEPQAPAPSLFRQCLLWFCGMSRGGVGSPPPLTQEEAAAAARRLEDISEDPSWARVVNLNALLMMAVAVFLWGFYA
# Source text: Evaluation of inhibitory activity against methyl-α-D-glucopyranoside uptake of human Na^+-glucose cotransporter (SGLT1 and SGLT2)
# 2) Construction of Human SGLT2 Expression Vector
# Human SGLT2 cDNA was amplified by PCR with a cDNA library derived from human kidney (Clontech) as a template, synthetic DNA primers and KOD+ DNA Polymerase. The amplified cDNA was inserted into pcRII-Topo vector by using a Topo TA Cloning Dual Promoter kit. E. coli competent cells (TPO10) were transformed with the plasmid vector, cultured in LB medium containing ampicillin (50 mg/L) to grow ampicillin-resistant clones. The plasmid vector containing human SGLT2 cDNA was purified from the clone in a standard manner. Human SGLT2 cDNA added restriction enzyme recognition sites (Xho I at 5′-end, Hind III at 3′-end) was amplified by PCR with the plasmid vector as a template, synthetic DNA primers containing an additional restriction enzyme recognition site and KOD+ DNA Polymerase. This amplified cDNA was digested with Xho I and Hind III, and ligated into expression vector pcDNA3.1(−) digested with Xho I and Hind III by using a Rapid DNA Ligation kit. E. coli competent cells (DH5α) were transformed with the ligated expression vector and grown in ampicillin-containing LB medium. Human SGLT2 expression vector was purified from the ampicillin-resistant clone in a standard manner.
# 3) Establishment of Cell Lines Stably Expressing Human SGLT1 or Human SGLT2
# The human SGLT1 expression vector or the human SGLT2 expression vector was digested with the restriction enzyme Pvu I and transfected into CHO-Kl cells with FuGENE (Roche Diagonostics). After the transfection, the cells were cultured at 37° C. in the presence of 5% CO2 for about 3 weeks in DMEM medium (Gibco) containing penicillin (50 U/mL, SIGMA), streptomycin (50 mg/L, SIGMA), geneticin (200 mg/L, Nacalai Tesque, Inc., Japan) and 20% fetal bovine serum to obtain geneticin-resistant clones. Among these clones, clones stably expressing human SGLT1 or human SGLT2 were selected by the evaluating the sodium-dependent uptake activity of sugar (methyl-α-D-glucopyranoside).
# 4) Evaluation of Inhibitory Activity Against methyl-α-D-glucopyranoside uptake
# Cell lines stably expressing human SGLT1 or human SGLT2 CHO were seeded in 96-well culture plates at a density of 30000 to 40000 cells/well and cultured for 4 to 6 days. The medium in these plates was removed and replaced by 150 μL/well pretreatment buffer (i.e., a buffer containing 140 mM choline chloride, 2 mM potassium chloride, 1 mM calcium chloride, 1 mM magnesium chloride, 10 mM 2-[4-(2-hydroxyethyl)-1-piperazinyl]ethanesulfonic acid and tris(hydroxymethyl)aminomethane, pH 7.4), and the plates were incubated at 37° C. for 20 minutes. The pretreatment buffer in the plates was removed, replaced by 50 μL/well fresh pretreatment buffer, and the plates were incubated at 37° C. for 20 minutes. Methyl-α-D-(U—^14C)glucopyranoside (6.3 mL, Amersham Pharmacia Biotech, 200 mCi/L) was added to and mixed with 100 mL buffer (i.e., a buffer containing 140 mM sodium chloride, 2 mM potassium chloride, 1 mM calcium chloride, 1 mM magnesium chloride, 1 mM methyl-α-D-glucopyranoside, 10 mM [4-(2-hydroxyethyl)-1-piperazinyl]ethanesulfonic acid and tris(hydroxymethyl)aminomethane, pH 7.4), which was used as uptake buffer. Test compounds were dissolved into uptake buffer and these test compound solutions were used for evaluating inhibitory activity. Uptake buffer without a test compound was used as a control solution. Moreover, for use in measuring baseline uptake in the absence of sodium, sodium-free solution was prepared in the same manner to contain 140 mM choline chloride instead of sodium chloride. The pretreatment buffer was removed from each well of the plates and replaced by 35 μL/well test compound solutions, control solution or sodium-free solution, and the plates were incubated at 37° C. for 45 minutes. […]
# db/db mice = experiment: Study for glucose lowering effect in db/db mouse; assay type: in vivo; settings: Mus musculus, po, 0.3 mg/kg administration, 6 hours, read-out: reduction of blood glucose 6 hours after administration
# Description: Study for Glucose Lowering Effect in dB/dB Mouse
# A study for glucose lowering effect was conducted using db/db mice (purchased from Clea Japan, Inc., male, 9 to 11 weeks old), type 2 diabetic model mice. On the day of the study, body weights and blood glucose levels were measured prior to the start of testing. Measurement of the blood glucose levels was performed using a simple blood glucose meter (manufactured by Bayer HealthCare, Dexter-Z II). The mice were allocated to some groups consisting of 5 mice each so that homogeneity of body weights or blood glucose levels among groups would be ensured. Blood collection was carried out by making an incision on the tip of the tail and taking the blood therefrom. On the day of the study, the test compounds were suspended in 0.5% carboxymethylcellulose solution (CMC solution), and the dosing solutions of which concentration was adjusted to either 0.3 mg/10 mL or 3 mg/10 mL were prepared. The dosing solutions were orally administered by gavage for mice in 10 mL/kg. To the control group, only a 0.5% CMC solution was orally administered in 10 mL/kg. Blood was collected prior to or sequentially after administration of test compounds by above method. The blood glucose levels were determined using a hexokinase method (AutoSera S GLU, manufactured by Daiichi Pure Chemicals Co., Ltd.). A percent reduction of blood glucose relative to control group at each time point after administration of test compounds was calculated by the following equation.
# Percent reduction of blood glucose (%)={blood glucose level in the control group (mg/dL)-blood glucose level in the test compound group (mg/dL)}/blood glucose level in the control group (mg/dL)×100
compound,measurement,setting,value
"Cc1ccc(Cc2cc3c(cc2F)CO[C@]32O[C@H](CO)[C@@H](O)[C@H](O)[C@H]2O)cc1 [Example 18, (1S,3′R,4′S,5′S,6′R)-5-fluoro-3′,4′,5′,6′-tetrahydro-6′-(hydroxymethyl)-6-[(4-methylphenyl)methyl]-spiro[isobenzofuran-1(3H),2′-[2H]pyran]-3′,4′,5′-triol]",IC50,human SGLT2,1.7 nM
same,inhibition in vivo at 0.3 mg/kg,db/db mice,≥ 25%
